Like-named read-outs stand apart in the source and are kept apart here.
Test: MALDI quantitative MSI (on-tissue qMSI) of rotenone in kidney tissue sections after a single oral dose
Format: in vivo
Settings: rat, single oral 2 mg/kg; for concentration at 24 h: kidney, po, 2 mg/kg
Protocol: Rats were sacrificed 24 h after drug administration, and the kidney and liver organs were immediately removed, flash-frozen with liquid nitrogen, and stored at −80°C in a freezer for long-term storage. The administration and harvesting of organs were conducted by the Pharmalytics Corporation, accredited by the Food and Drug Administration (FDA, Philippines) for bioavailability and bioequivalence research. The animal study was reviewed and approved by the Institutional Animal Care and Use Committee (IACUC) Esteleydes Animal Laboratory and Research Facility and by the Bureau of Animal Industry—Animal Health and Welfare Division in the Philippines.
Agarose-embedded kidney and liver organs were cut longitudinally at 5 µm thickness at −20°C using a cryostat (Leica CM 1950; Leica Biosystems, Germany), and thaw-mounted onto clean glass slides. The agarose-embedded kidney or liver was trimmed up to 500 µm to remove the agarose covering a portion of the organ. Subsequently, seven layers from the outer portion towards the middle were identified with a 100 µm distance between each layer. Representative cryosections were obtained from each identified layer of the untreated and drug-treated rat kidney. The agarose surrounding the kidney or liver cryosectioned tissue was manually removed before mounting onto a glass slide. Prior to matrix coating, the glass slides mounted with thin kidney cryosections were placed in a box and kept in a vacuum desiccator cabinet overnight ([Costa et al., 2013]; [Marques et al., 2014]; [Dalisay et al., 2015]; [Suarez et al., 2023]).
Matrix solution was applied to evenly coat the entire tissue surface using a HTX M5 Sprayer (HTX Technologies, LLC, Carrboro, NC, United States). The parameter settings were optimized to avoid metabolite delocalization and compromised spatial integrity. The kidney sections were sprayed with a matrix solution of 2,5-dihydroxybenzoic acid (DHB) (Acros Organics, New Jersey, United States) at a concentration of 40 mg/mL in MeOH/H2O (1:1 v/v). Matrix solution was homogeneously applied for 6 passes in a criss-cross (CC) pattern with a nozzle temperature of 80°C, 1 mm track spacing, 1,250 mm/min nozzle speed, and 10 psi nitrogen pressure.
This method utilized an untreated kidney tissue sample which was sectioned and mounted on a clean glass slide. An on-tissue calibration curve method for qMSI was followed ([Kibbe and Muddiman, 2024]). […] Linear regression analysis was applied and inspected to confirm linearity. The untreated tissue was spotted with calibrants, allowed to dry, and coated with matrix (DHB 40 mg/mL in MeOH:H2O, 1:1 v/v). MALDI MSI data were acquired in 100 μm pixel resolution using MALDI SYNAPT XS (Waters Corporation, Manchester, United Kingdom) in positive mode. The experiment was performed with three replicates per calibrant in three independent trials. In order to address variations that may occur during data acquisition for qMSI, the ion signals were normalized to the total ion current (TIC). The intensities obtained for each concentration were plotted and approximated using the least-squares method. The limits of detection (LOD) and quantification (LOQ) were calculated by averaging the calibration curves, using signal-to-noise ratios (S/N) of 3:1 for LOD and 10:1 for LOQ. The validity of these limits was confirmed by applying serially diluted rotenone onto the tissue. In cases where the blank response has a standard deviation (SD) of zero, the SD of the lowest non-zero concentration was utilized. The SD value was divided by the slope of the calibration curve and multiplied by 3.3. The LOD was calculated using the formula LOD=3.3 x SDlowest non−zero concentration/slope of the calibration curve
To calculate the LOD and LOQ values in kidney tissue (pg/ng), the values were divided by the renal tissue density (ng/µL). […]

Work on C=C(C)[C@H]1Cc2c(ccc3c2O[C@@H]2COc4cc(OC)c(OC)cc4[C@@H]2C3=O)O1 [rotenone, Rotenone] yielded a concentration at 24 h (AVERAGE ± SD of 7 kidney tissue sections, read-out: Concentration) of 6200 ± 3800 ng/mL, a concentration at 24 h (AVERAGE ± SD of 7 kidney tissue sections, read-out: Relative concentration per tissue section) of 5860 ng/g and a concentration at 24 h (Kidney Tissue 1 (layer 1), read-out: Concentration) of 3600 ng/mL. It also gave a concentration at 24 h (Kidney Tissue 1 (layer 1), read-out: Relative concentration per tissue section) of 1650 ng/g, a concentration at 24 h (Kidney Tissue 2 (layer 2), read-out: Concentration) of 2000 ng/mL and a concentration at 24 h (Kidney Tissue 2 (layer 2), read-out: Relative concentration per tissue section) of 1100 ng/g. For the same compound, the concentration at 24 h (Kidney Tissue 3 (layer 3), read-out: Concentration) was 2600 ng/mL, the concentration at 24 h (Kidney Tissue 3 (layer 3), read-out: Relative concentration per tissue section) was 1910 ng/g and the concentration at 24 h (Kidney Tissue 4 (layer 4), read-out: Concentration) was 7200 ng/mL. It also gave a concentration at 24 h (Kidney Tissue 4 (layer 4), read-out: Relative concentration per tissue section) of 5950 ng/g, a concentration at 24 h (Kidney Tissue 5 (layer 5), read-out: Concentration) of 7000 ng/mL and a concentration at 24 h (Kidney Tissue 5 (layer 5), read-out: Relative concentration per tissue section) of 6420 ng/g. For the same compound, the concentration at 24 h (Kidney Tissue 6 (layer 6), read-out: Concentration) was 8000 ng/mL, the concentration at 24 h (Kidney Tissue 6 (layer 6), read-out: Relative concentration per tissue section) was 9210 ng/g and the concentration at 24 h (Kidney Tissue 7 (layer 7), read-out: Concentration) was 12800 ng/mL. For the same compound, the concentration at 24 h (Kidney Tissue 7 (layer 7), read-out: Relative concentration per tissue section) was 14700 ng/g, the “Normalized Mass intensity by TIC” value (24 h, AVERAGE ± SD of 7 kidney tissue sections) was 0.0042 ± 0.0019 and the “Normalized Mass intensity by TIC” value (24 h, Kidney Tissue 1 (layer 1)) was 0.0030. The “Normalized Mass intensity by TIC” value (24 h, Kidney Tissue 2 (layer 2)) was 0.0022, the “Normalized Mass intensity by TIC” value (24 h, Kidney Tissue 3 (layer 3)) was 0.0025 and the “Normalized Mass intensity by TIC” value (24 h, Kidney Tissue 4 (layer 4)) was 0.0048. For the same compound, the “Normalized Mass intensity by TIC” value (24 h, Kidney Tissue 5 (layer 5)) was 0.0047, the “Normalized Mass intensity by TIC” value (24 h, Kidney Tissue 6 (layer 6)) was 0.0052 and the “Normalized Mass intensity by TIC” value (24 h, Kidney Tissue 7 (layer 7)) was 0.0076. The “Detected amount of rotenone drug in picograms per nanogram of tissue mass” value (24 h, range over seven kidney layers) was 0.0011 to 0.0147 pg/ng.

Source: paper PMC11246995 (Frontiers in Molecular Biosciences, 2024)
